From EP4428124A1, “MODULATORS OF SORTILIN ACTIVITY” (Vesper Bio Aps, priority 2023, dated 2024)
Where a name gives a salt, the structure may show the parent alone.

Legend:
[1] = target: T1, h-Sortilin (Homo sapiens, UniProt Q99523); assay: Neurotensin scintillation proximity assay (SPA); format: binding; conditions: displacement of 5 nM [3H]-Neurotensin, 150 nM 6his-Sortilin; average of at least 2 determinations
T1 sequence (Q99523 78-831): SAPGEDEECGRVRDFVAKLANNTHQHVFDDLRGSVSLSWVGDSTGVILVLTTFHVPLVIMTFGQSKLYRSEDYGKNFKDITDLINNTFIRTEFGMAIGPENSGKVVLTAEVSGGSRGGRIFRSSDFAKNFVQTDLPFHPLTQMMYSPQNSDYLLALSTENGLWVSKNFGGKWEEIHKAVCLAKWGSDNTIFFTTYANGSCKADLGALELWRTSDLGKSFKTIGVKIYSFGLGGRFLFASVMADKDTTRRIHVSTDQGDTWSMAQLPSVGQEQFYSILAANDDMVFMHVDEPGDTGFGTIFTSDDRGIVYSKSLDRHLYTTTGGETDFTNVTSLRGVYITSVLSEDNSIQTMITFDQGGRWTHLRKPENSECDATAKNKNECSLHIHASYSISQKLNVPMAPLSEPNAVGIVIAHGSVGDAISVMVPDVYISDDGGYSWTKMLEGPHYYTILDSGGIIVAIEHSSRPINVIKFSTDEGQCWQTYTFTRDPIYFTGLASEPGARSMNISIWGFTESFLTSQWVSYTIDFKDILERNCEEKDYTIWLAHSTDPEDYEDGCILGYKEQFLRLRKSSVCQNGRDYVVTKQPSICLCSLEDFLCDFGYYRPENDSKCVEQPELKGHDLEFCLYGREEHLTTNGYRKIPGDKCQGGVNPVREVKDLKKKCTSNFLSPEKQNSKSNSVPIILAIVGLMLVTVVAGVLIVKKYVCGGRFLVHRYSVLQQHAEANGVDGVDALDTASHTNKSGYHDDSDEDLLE
Description: NTS, which is a 13 amino acid neuropeptide, is a sortilin ligand. […] Compound affinity was determined by measuring the displacement of [^3H]-neurotensin binding to h-Sortilin in SPA format. Total volume of 40 µl in 50 mM HEPES pH 7.4 assay buffer containing 100 mM NaCl, 2.0 mM CaCl2, 0.1 % BSA and 0.1 % Tween-20. Compound pre-incubation for 30 minutes at room temperature with 150 nM of 6his-Sortilin before 5 nM [3H]-Neurotensin and Ni chelate imaging beads (Perkin Elmer) were added, after 6 hours the plate was read on a ViewLux with 360 s exposure time. Dose-response evaluation of compounds was performed with 8 concentrations of drugs (covering 3 decades). IC50 values were calculated by nonlinear regression using the sigmoid concentration-response (variable slope) using CDD Vault software. All values reported are average of at least 2 determinations.

[2] = target: T2, Human (6-His)Sortilin (Homo sapiens, UniProt Q99523); assay: Human Sortilin GCI (Grating-Coupled Interferometry) binding assay; conditions: immobilised Human (6-His)Sortilin, Creoptix WAVE-RAPID, single concentration, 1:1 kinetic model; read-out: h-Sortilin GCI KD
T2 construct: purchased RnD Systems
T2 sequence (Q99523 78-831): T1 sequence (Q99523 78-831)

[3] = target: T3, Sortilin receptor at the cell surface (Homo sapiens, UniProt Q99523); assay: Progranulin cell surface engagement assay; format: cell-based; conditions: displacement of 100 nM PGRN-AF647, HEK293 engineered to express sortilin, on ice; average of at least 2 determinations
T3 construct: expressed in transfected cells; host or cells: HEK293
T3 sequence (Q99523 78-831): T1 sequence (Q99523 78-831)
Description: PGRN is a sortilin ligand.
Compound affinity was determined by measuring the ability of compounds to displace the binding of Progranulin-Alexa Fluor 647 (PGRN-AF647) binding to the Sortilin receptor at the cell surface. HEK293 engineered to express sortilin were pre-incubated with compound for 30 minutes on ice in 20 µl assay buffer containing 1% BSA in PBS. Dose-response evaluation of compounds was performed with 10 concentrations of drugs (10 point half log curve). PGRN-AF647 was added at 100 nM concentration in 20 µl assay buffer for 2 hours on ice. Data was acquired using iQue flow cytometer (IntelliCyt). IC50 values were calculated by nonlinear regression using the sigmoid concentration-response (variable slope) using CDD Vault software. All values reported are average of at least 2 determinations.

| Compound | IC50 [1] | Kd [2] | IC50 [3] |
| --- | --- | --- | --- |
| CC(C)(C)CCC(C)(NCCCc1ccccc1)C(=O)O (racemic) [Example 9, 2,5,5-trimethyl-2-(3-phenylpropylamino)hexanoic acid] | 9740 nM | – | – |
| CC(C)(C)CCC(C)(NCc1cncnc1)C(=O)O (stereo not drawn) [Example 11] | – | 73500 nM | – |
| CC(C)(C)CCC(C)(NCc1cncnc1)C(=O)O (racemic) [Example 8, 2,5,5-trimethyl-2-{[(5-pyrimidinyl)methyl]amino}hexanoic acid] | 840 nM | 4220 nM | – |
| COc1cccc(CN[C@@](C)(CCC(C)(C)C)C(=O)O)c1 [Example 5, (S)-2-((3-methoxybenzyl)amino)-2,5,5-trimethylhexanoic acid hydrochloride] | 1330 nM | – | – |
| CC(C)(C)CCC(C)(NCc1ccccc1)C(=O)O (racemic) [Example 1, rac-2-benzylamino-2,5,5-trimethylhexanoic acid] | 2500 nM | 621 nM | – |
| CC(C)(C)CC[C@@](C)(NCc1ccccc1)C(=O)O [Example 3, (R)-2-benzylamino-2,5,5-trimethylhexanoic acid] | – | 21400 nM | – |
| COc1cccc(CNC(C)(CCC(C)(C)C)C(=O)O)c1 (racemic) [Example 4, 2-((3-methoxybenzyl)amino)-2,5,5-trimethylhexanoic acid hydrochloride] | 4020 nM | – | – |
| COc1cccc(CNC(C)(CCC(C)C)C(=O)O)c1 (racemic) [Example 7, 2-{[(m-methoxyphenyl)methyl]amino}-2,5-dimethylhexanoic acid] | – | 1270 nM | – |
| CC(C)(C)CC[C@](C)(NCc1cncnc1)C(=O)O (single isomer, unassigned) [Example 10] | 383 nM | 804 nM | 680 nM |
| CC(C)(C)CC[C@](C)(NCc1ccccc1)C(=O)O [Example 2, (S)-2-benzylamino-2,5,5-trimethylhexanoic acid] | 2970 nM | 393 nM | – |
